Among the data in publication PMC6804295, “Design, Synthesis, and Biological Evaluation of Novel Thienopyrimidine Derivatives as PI3Kα Inhibitors” (Molecules, 2019) are IC50 and melting point values, retold here.

Bounds are passed on as bounds.

Data set [1] has as its system MCF-7 (human breast cancer). Briefly: MTT cytotoxicity assay, MCF-7 cells. Format: cell-based. As to conditions: >50 = no inhibitory effect at 50 μM. On the procedure:
(§1) The cancer cell lines were cultured in minimum essential medium (MEM) supplement with 10% fetal bovine serum (FBS). Approximately, 4 × 10 ^3 cells, suspended in MEM medium, were plated onto each well of a 96-well plate and incubated in 5% CO2 at 37 °C for 24 h. The test compounds at the indicated final concentrations were added to the culture medium, and cell cultures continued for 72 h. Fresh MTT was added to each well at a terminal concentration of 5 µg/mL and incubated with cells at 37 °C for 4 h. The formazan crystals were dissolved in 100 µL of DMSO in each well, and the absorbency at 492 nm (for absorbance of MTT formazan) and 630 nm (for the reference wavelength) was measured with an enzyme linked immunosorbent assay (ELISA) reader (MR-96A Mindray Elisa Microplate Reader, Guangzhou, China). All compounds were tested three times in each of the cell lines. The results expressed as inhibition rates or IC50 was the averages of […] and calculated using the Bacus Laboratories Inc. Slide Scanner (Bliss) software (the Bacus Laboratories Inc. Slide Scanner (BLISS) system, Lombard, IL, USA).

The subject of a further data set is A549 (human lung cancer). Put plainly: MTT cytotoxicity assay, A549 cells. As to conditions: 72 h, >50 = no inhibitory effect at 50 μM. Format: cell-based. On the procedure: as §1
(In general: Tetrazolium dyes change colour on reduction, which living cells bring about.)

In another data set the test system is HepG2 (human hepatoma). Put plainly: MTT cytotoxicity assay, HepG2 cells. Format: cell-based. As to conditions: >50 = no inhibitory effect at 50 μM. On the procedure:
as §1

For data set [2], the system named is PC-3 (human prostate cancer). Briefly: MTT cytotoxicity assay, PC-3 cells. Format: cell-based. As to conditions: >50 = no inhibitory effect at 50 μM. The method, then: as §1
The target of the next data set is mTOR (Homo sapiens, UniProt P42345). Briefly: mTOR Kinase-Glo Luminescent Kinase Assay. Format: biochemical. As to conditions: 10 µM ATP, 60 min. For orientation: In Kinase-Glo more light means more ATP remaining.
In a further data set the target is PI3Kα (Homo sapiens, UniProt P42336). Put plainly: PI3Kα Kinase-Glo Luminescent Kinase Assay. As to conditions: 1 µM ATP, 60 min. Format: biochemical.
Chain of PI3Kα (P42336 whole entry): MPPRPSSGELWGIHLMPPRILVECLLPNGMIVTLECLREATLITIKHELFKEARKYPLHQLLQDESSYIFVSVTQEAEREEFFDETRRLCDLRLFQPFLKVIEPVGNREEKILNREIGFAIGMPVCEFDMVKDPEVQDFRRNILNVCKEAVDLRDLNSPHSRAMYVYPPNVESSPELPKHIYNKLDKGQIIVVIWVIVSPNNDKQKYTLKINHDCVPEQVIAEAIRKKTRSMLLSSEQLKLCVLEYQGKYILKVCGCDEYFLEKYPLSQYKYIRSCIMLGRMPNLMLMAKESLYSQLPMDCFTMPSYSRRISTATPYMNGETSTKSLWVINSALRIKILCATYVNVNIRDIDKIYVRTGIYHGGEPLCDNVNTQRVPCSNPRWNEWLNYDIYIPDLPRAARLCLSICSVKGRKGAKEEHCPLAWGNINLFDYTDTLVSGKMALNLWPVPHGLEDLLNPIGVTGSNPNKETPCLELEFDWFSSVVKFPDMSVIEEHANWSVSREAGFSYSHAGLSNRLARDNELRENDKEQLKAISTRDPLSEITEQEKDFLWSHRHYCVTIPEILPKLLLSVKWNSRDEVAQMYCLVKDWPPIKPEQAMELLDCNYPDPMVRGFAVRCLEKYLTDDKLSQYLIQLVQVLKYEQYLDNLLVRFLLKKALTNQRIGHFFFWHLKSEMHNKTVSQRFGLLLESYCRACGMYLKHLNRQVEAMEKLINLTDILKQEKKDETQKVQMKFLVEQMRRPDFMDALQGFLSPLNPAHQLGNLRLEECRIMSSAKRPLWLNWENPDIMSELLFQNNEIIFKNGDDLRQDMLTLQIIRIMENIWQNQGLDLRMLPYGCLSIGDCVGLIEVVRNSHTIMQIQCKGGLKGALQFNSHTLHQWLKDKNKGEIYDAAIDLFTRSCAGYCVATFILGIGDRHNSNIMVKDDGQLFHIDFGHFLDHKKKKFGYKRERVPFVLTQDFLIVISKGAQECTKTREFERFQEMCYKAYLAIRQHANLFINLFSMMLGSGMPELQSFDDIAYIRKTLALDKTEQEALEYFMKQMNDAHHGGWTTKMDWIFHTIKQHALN
Chain of PI3Kα (P27986 whole entry partner): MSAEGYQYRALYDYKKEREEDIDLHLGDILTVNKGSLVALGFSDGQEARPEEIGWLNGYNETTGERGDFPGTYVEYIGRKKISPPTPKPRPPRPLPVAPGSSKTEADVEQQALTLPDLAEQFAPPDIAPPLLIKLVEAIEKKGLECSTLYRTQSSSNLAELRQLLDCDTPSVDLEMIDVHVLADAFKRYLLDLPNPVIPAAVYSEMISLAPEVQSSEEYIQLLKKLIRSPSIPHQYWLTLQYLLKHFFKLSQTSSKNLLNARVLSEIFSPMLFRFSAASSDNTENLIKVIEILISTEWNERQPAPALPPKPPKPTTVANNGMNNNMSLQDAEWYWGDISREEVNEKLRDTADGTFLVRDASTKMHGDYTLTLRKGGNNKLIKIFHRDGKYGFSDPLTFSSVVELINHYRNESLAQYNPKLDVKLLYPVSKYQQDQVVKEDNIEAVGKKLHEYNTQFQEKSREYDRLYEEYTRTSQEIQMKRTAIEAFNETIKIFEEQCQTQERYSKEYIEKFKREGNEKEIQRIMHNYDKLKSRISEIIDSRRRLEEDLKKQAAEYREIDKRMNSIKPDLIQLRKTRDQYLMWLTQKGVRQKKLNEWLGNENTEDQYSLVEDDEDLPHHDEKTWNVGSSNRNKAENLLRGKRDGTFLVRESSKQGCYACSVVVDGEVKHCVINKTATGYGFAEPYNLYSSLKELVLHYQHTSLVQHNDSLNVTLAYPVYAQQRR

In general, IC50 refers to the midpoint of a concentration-inhibition curve. Low values mean higher potency, high ones lower potency. What is called melting point is the temperature of the solid-liquid transition. Compound `c1ccc(C2=NN(c3nc(N4CCOCC4)c4ccsc4n3)[C@@H](c3ccccc3)C2)cc1` (stereo in doubt) [Compound 9a] displayed a melting point of 202 to 205 °C. The IC50 in data set [1] (72 h) came to 14.7 ± 1.32 µM. The same compound yielded an IC50 in data set [1] (Homo sapiens, MCF7, 72 h) of 9.8 ± 0.93 µM. Also, 11.3 ± 1.19 µM corresponded to half-maximal inhibition in the data set with A549 (human lung cancer) (IC50). In addition, the IC50 in the data set with HepG2 (human hepatoma) (72 h) came to 9.8 ± 0.93 µM. Moreover, in the data set with HepG2 (human hepatoma) (Homo sapiens, HepG2, 72 h), the midpoint of inhibition, the IC50, lay at 12.3 ± 0.96 µM. The same compound yielded an IC50 in data set [2] (72 h) of 12.3 ± 0.96 µM. In data set [2] (Homo sapiens, PC-3, 72 h), inhibition was half-maximal at 14.7 ± 1.32 µM (IC50). Besides, the IC50 against mTOR is 39.9 ± 7.6 µM. Moreover, the midpoint of inhibition against PI3Kα, the IC50, lay at 9.47 ± 0.63 µM.

`c1ccc(C2=NN(c3nc(N4CCOCC4)c4sccc4n3)[C@@H](c3ccccc3)C2)cc1` (stereo in doubt) [Compound 15a] gave a melting point of 131.2 to 132.5 °C. Moreover, 17 ± 1.68 µM corresponded to half-maximal inhibition in data set [1] (Homo sapiens, MCF7, 72 h) (IC50). In the data set on A549 (human lung cancer), the IC50 is 16.9 ± 1.61 µM. For the same compound, the IC50 in the data set with HepG2 (human hepatoma) (Homo sapiens, HepG2, 72 h) came to 13.1 ± 1.48 µM. Moreover, in data set [2] (Homo sapiens, PC-3, 72 h), inhibition was half-maximal at 15.5 ± 1.21 µM (IC50). On mTOR, this compound displayed an IC50 of over 50 µM. For the same compound, on PI3Kα, the midpoint of inhibition, the IC50, lay at 25.7 ± 2.33 µM.

As for `Fc1ccc(C2=NN(c3nc(N4CCOCC4)c4ccsc4n3)C(c3ccc(F)cc3)C2)cc1` (stereo not shown) [Compound 9c, 4-(2-(3,5-bis(4-fluorophenyl)-4,5-dihydro-1H-pyrazol-1-yl)thieno[2,3-d]pyrimidin-4-yl)Morpholine], the melting point is 225 to 227 °C. The compound also gave an IC50 in data set [1] (Homo sapiens, MCF7, 72 h) of 22.37 ± 0.17 µM. The compound further came in with an IC50 in the data set on A549 (human lung cancer) of 24.23 ± 0.15 µM. The same compound gave an IC50 in the data set on HepG2 (human hepatoma) (Homo sapiens, HepG2, 72 h) of 17.4 ± 0.98 µM. In data set [2] (Homo sapiens, PC-3, 72 h), this compound returned an IC50 of 18.2 ± 1.55 µM.

The compound `Fc1ccc(C2=NN(c3nc(N4CCOCC4)c4sccc4n3)C(c3ccc(F)cc3)C2)cc1` (stereo not shown) [Compound 15c, 4-(2-(3,5-bis(4-fluorophenyl)-4,5-dihydro-1H-pyrazol-1-yl)thieno[3,2-d]pyrimidin-4-yl)Morpholine] displayed a melting point of 254.7 to 255.4 °C. Moreover, the IC50 in data set [1] (Homo sapiens, MCF7, 72 h) was found to be 37.1 ± 2.99 µM. The compound further returned an IC50 in the data set on A549 (human lung cancer) of 39 ± 3.32 µM. Also, the IC50 in the data set with HepG2 (human hepatoma) (Homo sapiens, HepG2, 72 h) was 18.9 ± 1.86 µM. The same compound had an IC50 in data set [2] (Homo sapiens, PC-3, 72 h) of 25.3 ± 2.39 µM.

`COc1ccc(C2CC(c3ccc(Cl)c(Cl)c3)=NN2c2nc(N3CCOCC3)c3c4c(sc3n2)CCCC4)cc1` (stereo not shown) [Compound 21a, 4-(2-(3-(3,4-dichlorophenyl)-5-(4-methoxyphenyl)-4,5-dihydro-1H-pyrazol-1-yl)-5,6,7,8-tetrahydrobenzo[4,5]thieno[2,3-d]pyrimidin-4-yl)morpholine] came in with a melting point of 252 to 253 °C. The compound further gave an IC50 with A549 (human lung cancer) of 27.68 ± 0.1 µM. The IC50 with HepG2 (human hepatoma) (Homo sapiens, HepG2, 72 h) was 32.4 ± 1.84 µM. In data set [2] (Homo sapiens, PC-3, 72 h), this compound showed an IC50 of 31.8 ± 0.95 µM.

`Cc1ccc(C2CC(c3ccc(Br)cc3)=NN2c2nc(N3CCOCC3)c3c4c(sc3n2)CCCC4)cc1` (stereo not shown) [Compound 21b, 4-(2-(3-(4-bromophenyl)-5-(p-tolyl)-4,5-dihydro-1H-pyrazol-1-yl)-5,6,7,8-tetrahdrobenzo[4,5]thieno[2,3-d]pyrimidin-4-yl)morpholine] returned a melting point of 243 to 244 °C. Also, it took 15.3 ± 0.83 µM to reach half-maximal inhibition in data set [1] (Homo sapiens, MCF7, 72 h) (IC50). In the data set with A549 (human lung cancer), this compound gave an IC50 of 11.59 ± 0.11 µM. In the data set with HepG2 (human hepatoma) (Homo sapiens, HepG2, 72 h), this compound returned an IC50 of 12.4 ± 0.96 µM. The IC50 in data set [2] (Homo sapiens, PC-3, 72 h) was found to be 20.6 ± 0.63 µM.

The compound `c1ccc(C2=NN(c3nc(N4CCOCC4)c4c5c(sc4n3)CCCC5)C(c3ccccc3)C2)cc1` (stereo not shown) [Compound 21c, 4-(2-(3,5-diphenyl-4,5-dihydro-1H-pyrazol-1-yl)-5,6,7,8-tetrahydrobenzo[4,5]thiophene[2,3-d]pyramidin-4-yl)morpholine] registered a melting point of 212 to 213 °C. The compound also registered an IC50 in data set [1] (Homo sapiens, MCF7, 72 h) of over 50 µM. In the data set with A549 (human lung cancer), this compound gave an IC50 of 42 ± 1.49 µM. Also, in the data set on HepG2 (human hepatoma) (Homo sapiens, HepG2, 72 h), the IC50 was over 50 µM. In data set [2] (Homo sapiens, PC-3, 72 h), this compound displayed an IC50 of over 50 µM.

The compound `COc1ccc(C2CC(c3ccc(F)cc3)=NN2c2nc(N3CCOCC3)c3c4c(sc3n2)CCCC4)cc1` (stereo not shown) [Compound 21d, 4-(2-(3-(4-fluorophenyl)-5-(4-methoxyphenyl)-4,5-dihydro-1H-pyrazol-1-yl)-5,6,7,8-tetrahydrobenzo[4,5]thieno[2,3-d]pyrimidin-4-yl)morpholine] had a melting point of 189 to 193 °C. Moreover, 29.5 ± 1.87 µM corresponded to half-maximal inhibition in data set [1] (Homo sapiens, MCF7, 72 h) (IC50). Moreover, inhibition in the data set with A549 (human lung cancer) was half-maximal at 17.8 ± 1.1 µM (IC50). Moreover, the IC50 in the data set on HepG2 (human hepatoma) (Homo sapiens, HepG2, 72 h) stood at 23.7 ± 0.11 µM. In data set [2] (Homo sapiens, PC-3, 72 h), this compound came in with an IC50 of 25.3 ± 0.75 µM.

The compound `Fc1ccc(C2CC(c3ccc(Br)cc3)=NN2c2nc(N3CCOCC3)c3c4c(sc3n2)CCCC4)cc1` (stereo not shown) [Compound 21e, 4-(2-(3-(4-bromophenyl)-5-(4-fluorophenyl)-4,5-dihydro-1H-pyrazol-1-yl)-5,6,7,8-tetrahydrobenzo[4,5]thieno[2,3-d]pyrimidin-4-yl)morpholine] returned a melting point of 272 to 273 °C. For the same compound, in data set [1] (Homo sapiens, MCF7, 72 h), the IC50 was over 50 µM. Also, the IC50 in the data set with A549 (human lung cancer) is over 50 µM. In addition, in the data set on HepG2 (human hepatoma) (Homo sapiens, HepG2, 72 h), it took 38.7 ± 1.72 µM to reach half-maximal inhibition (IC50). Besides, in data set [2] (Homo sapiens, PC-3, 72 h), the IC50 is over 50 µM.

As to `Brc1ccc(C2=NN(c3nc(N4CCOCC4)c4c5c(sc4n3)CCCC5)C(c3ccccc3)C2)cc1` (stereo not shown) [Compound 21f, 4-(2-(3-(4-bromophenyl)-5-phenyl-4,5-dihydro-1H-pyrazol-1-yl)-5,6,7,8-tetrahydrobenzo[4,5]thieno[2,3-d]pyrimidin-4-yl)morpholine], the melting point lay in the range of 257 to 259 °C. The compound further showed an IC50 in data set [1] (Homo sapiens, MCF7, 72 h) of over 50 µM. The compound further yielded an IC50 in the data set on A549 (human lung cancer) of over 50 µM. In the data set on HepG2 (human hepatoma) (Homo sapiens, HepG2, 72 h), this compound showed an IC50 of over 50 µM. The IC50 in data set [2] (Homo sapiens, PC-3, 72 h) is over 50 µM.

For the compound `Clc1ccc(C2=NN(c3nc(N4CCOCC4)c4c5c(sc4n3)CCCC5)C(c3ccc(Br)cc3)C2)cc1Cl` (stereo not shown) [Compound 21g, 4-(2-(5-(4-bromophenyl)-3-(3,4-dichlorophenyl)-4,5-dihydro-1H-pyrazol-1-yl)-5,6,7,8-tetrahydrobenzo[4,5]thieno[2,3-d]pyrimidin-4-yl)morpholine], the melting point lay within 231 to 234 °C. Besides, the IC50 in data set [1] (Homo sapiens, MCF7, 72 h) was over 50 µM. In addition, in the data set on A549 (human lung cancer), the IC50 is over 50 µM. For the same compound, the IC50 with HepG2 (human hepatoma) (Homo sapiens, HepG2, 72 h) was over 50 µM. The compound further yielded an IC50 in data set [2] (Homo sapiens, PC-3, 72 h) of over 50 µM.

In turn, `Clc1ccc(C2=NN(c3nc(N4CCOCC4)c4c5c(sc4n3)CCCC5)C(c3ccccc3)C2)cc1Cl` (stereo not shown) [Compound 21h, 4-(2-(3-(3,4-dichlorophenyl)-5-phenyl-4,5-dihydro-1H-pyrazol-1-yl)-5,6,7,8-tetrahydrobenzo[4,5]thieno[2,3-d]pyrimidin-4-yl)morpholine] yielded a melting point of 293 to 294 °C. The IC50 in data set [1] (Homo sapiens, MCF7, 72 h) is over 50 µM. The compound further yielded an IC50 in the data set on A549 (human lung cancer) of 23.5 ± 0.82 µM. Further, in the data set with HepG2 (human hepatoma) (Homo sapiens, HepG2, 72 h), the IC50 was over 50 µM. The compound also yielded an IC50 in data set [2] (Homo sapiens, PC-3, 72 h) of over 50 µM.

Regarding `CS(=O)(=O)N1CCN(Cc2cc3nc(-c4cccc5[nH]ncc45)nc(N4CCOCC4)c3s2)CC1` [GDC-0941, reference compound], the IC50 amounted to 0.2 ± 0.08 µM in data set [1] (Homo sapiens, MCF7, 72 h); 6.99 ± 0.21 µM with A549 (human lung cancer); 0.07 ± 0.03 µM in the data set on HepG2 (human hepatoma) (Homo sapiens, HepG2, 72 h); 4.35 ± 0.33 µM in data set [2] (Homo sapiens, PC-3, 72 h).
